Reference: patent US20260184727A1, “SOLID FORMS OF MACROCYCLIC COMPOUNDS AND USES THEREOF” (AMGEN INC., priority 2024, published 2026)
Converted amounts (≈) assume the structure as drawn. Read-outs that look alike come from different tables or passages of the source. One block for each compound: values may come before it.

Legend:
[1] = Moisture sorption analysis (DVS); assay type: physicochemical; conditions: for hygroscopicity by DVS isotherm / moisture uptake (DVS): 25° C.
Protocol: Moisture Sorption Analysis-Moisture sorption isotherm was determined using a DVS Endeavour at 25° C. in an aluminum pan with water as the solvent (closed loop) and nitrogen gas flow at 200 sccm. The sample was analyzed from 40% to 0% to 90% to 0% to 90% to 0% to 40% RH in 5% RH steps.

[2] = Moisture sorption analysis (DVS); assay type: physicochemical; conditions: for moisture uptake (DVS): 25° C.
[3] = Comparative solubilities of Form 1 and Form 1E in biorelevant media; assay type: physicochemical; conditions: for solubility: read-out: Solubility Conc
[4] = Single dose dog PK, Form 1E compared to Compound A free base; assay type: in vivo, dogs; conditions: FIG. 5C
Protocol: The pharmacokinetic (PK) properties of Form 1E was evaluated in dogs.

[5] = Physical and chemical stability of Form 1E; assay type: physicochemical
[6] = PK properties of Form 1E in male dogs under fasted and fed conditions; assay type: in vivo; conditions: for AUC(0-inf) / AUC(0-t) / CL/F / Cmax / MRT / Tmax / half-life: male, dog, plasma, po; for half-life: read-out: t1/2, z (converted)
[7] = 30 mg/kg, pH 2, male dogs, Study A, 30.0 mg/kg p.o., Vehicle 1 (water/malonic acid pH 2.0), Fasted
[8] = 30 mg/kg, pH 2, male dogs, Study A, 30.0 mg/kg p.o., Vehicle 1 (water/malonic acid pH 2.0), Fed (kibble)
[9] = 50 mg/kg, pH 7, male dogs, Study B, Vehicle 2 (water/MSA pH7.0), Fasted
[10] = 50 mg/kg, pH 7, male dogs, Study B, Vehicle 2 (water/MSA pH7.0), Fed (high fat)

Structure (SMILES): O=C1OCCCc2c(Cl)cc3[nH]ncc3c2-c2ncc3c(nc(OC[C@@]45CCCN4C[C@H](F)C5)nc3c2F)N2CCOC[C@H](C2)O1 [Form C-P]
hygroscopicity by DVS isotherm [1]: hygroscopic | moisture uptake (DVS) ([1]; at 80% RH): 3.08 wt. %

Structure (SMILES): O=C1OCCCc2c(Cl)cc3[nH]ncc3c2-c2ncc3c(nc(OC[C@@]45CCCN4C[C@H](F)C5)nc3c2F)N2CCOC[C@H](C2)O1 [Form 1]
solubility ([3]; FaSSGF, pH 2.06, fassgf or other biorelevant): 4420 µg/mL (≈ 6740 µM) | solubility ([3]; FaSSIF, pH 7.15, fassif): 35 µg/mL (≈ 53.3 µM) | solubility ([3]; FeSSIF, pH 5.51, fessif): 560 µg/mL (≈ 854 µM) | solubility ([3]; PBS, pH 7.04, aqueous buffer): 10 µg/mL (≈ 15.2 µM) | Equilibrium crystal form ([3]; solubility sample in FaSSGF): Form 1 | Equilibrium crystal form ([3]; solubility sample in FaSSIF): Form 1 | Equilibrium crystal form ([3]; solubility sample in FeSSIF): Form 1 | Equilibrium crystal form ([3]; solubility sample in H2O): Form 1 | Equilibrium crystal form ([3]; solubility sample in PBS): Form 1 | solubility ([3]; water, H2O, pH 8.73): 0.3 µg/mL (≈ 0.457 µM)

Structure (SMILES): O=C1OCCCc2c(Cl)cc3[nH]ncc3c2-c2ncc3c(nc(OC[C@@]45CCCN4C[C@H](F)C5)nc3c2F)N2CCOC[C@H](C2)O1 [Form A1-A]
hygroscopicity as per TGA and XRPD analysis ([2]; judged from TGA and XRPD, no DVS reported): hygroscopic

Continued, in another order:

hygroscopicity by DVS isotherm [1]: hygroscopic | moisture uptake (DVS) ([1]; at 85% relative humidity): 4.0 wt. % | behaviour in DVS at 95% relative humidity ([2]; at 95% relative humidity): deliquescence
Structure (SMILES): O=C1OCCCc2c(Cl)cc3[nH]ncc3c2-c2ncc3c(nc(OC[C@@]45CCCN4C[C@H](F)C5)nc3c2F)N2CCOC[C@H](C2)O1 [Form C1]

hygroscopicity by DVS isotherm [1]: hygroscopic | moisture uptake (DVS) ([2]; at 95% relative humidity): 4.7 wt. %
Structure (SMILES): O=C1OCCCc2c(Cl)cc3[nH]ncc3c2-c2ncc3c(nc(OC[C@@]45CCCN4C[C@H](F)C5)nc3c2F)N2CCOC[C@H](C2)O1 [Form 1B]

improvement in plasma concentration compared to Compound A free base [4]: ~2 × | solubility ([3]; FaSSGF, pH 1.99, fassgf or other biorelevant): 5990 µg/mL (≈ 9130 µM) | solubility ([3]; FaSSIF, pH 4.86, fassif): 1730 µg/mL (≈ 2640 µM) | solubility ([3]; FeSSIF, pH 4.58, fessif): 2500 µg/mL (≈ 3810 µM) | solubility ([3]; PBS, pH 4.55, aqueous buffer): 1300 µg/mL (≈ 1980 µM) | solubility in several media relative to Form 1 ([3]; several media, compared with Form 1): higher solubility | Equilibrium crystal form ([3]; solubility sample in FaSSGF): Form 1E | Equilibrium crystal form ([3]; solubility sample in FaSSIF): Form 1E | Equilibrium crystal form ([3]; solubility sample in FeSSIF): Form 1E | Equilibrium crystal form ([3]; solubility sample in H2O): Form 1E | Equilibrium crystal form ([3]; solubility sample in PBS): Form 1E | solubility ([3]; water, H2O, pH 3.93): 7760 µg/mL (≈ 11800 µM) | physical stability ([5]; accelerated conditions): physically stable | chemically stable for ([5]; at 5° C.): more than 2 years | hygroscopicity by DVS isotherm [1]: non-hygroscopic | moisture uptake (DVS) ([1]; at 90% relative humidity): 0.6 wt. % | hygroscopicity compared to all other forms ([1]; compared to all other solid forms of Compound A): lowest hygroscopicity | plasma exposure (Cmax and AUC), fed versus fasted conditions ([6]; dogs, FIGS. 5D and 5E, kibble or high fat diet): did not show a difference | AUC(0-inf) [6, 7]: 14.2 µM·h | AUC(0-t) [6, 7]: 14.1 µM·h | CL/F [6, 7]: 73.5 mL/min/kg | Cmax [6, 7]: 5820 nM | MRT [6, 7]: 3.16 h | Tmax [6, 7]: 0.312 h | half-life [6, 7]: 160 min | AUC(0-inf) [6, 8]: 17 µM·h | AUC(0-t) [6, 8]: 17 µM·h | CL/F [6, 8]: 55.8 mL/min/kg | Cmax [6, 8]: 4290 nM | MRT [6, 8]: 4.14 h | Tmax [6, 8]: 1.62 h | half-life [6, 8]: 178 min | half-life ([6]; 50 mg/kg, pH 7, male dogs, Study B, 50.0 mg/kg, Vehicle 2 (water/MSA pH7.0), Fasted): 208 min | half-life ([6]; 50 mg/kg, pH 7, male dogs, Study B, 50.0 mg/kg, Vehicle 2 (water/MSA pH7.0), Fed (high fat)): 290 min | AUC(0-inf) [6, 9]: 3.54 µM·h | AUC(0-t) [6, 9]: 3.53 µM·h | CL/F [6, 9]: 783 mL/min/kg | Cmax [6, 9]: 1350 nM | MRT [6, 9]: 3.79 h | Tmax [6, 9]: 0.9 h | AUC(0-inf) [6, 10]: 3.91 µM·h | AUC(0-t) [6, 10]: 3.89 µM·h | CL/F [6, 10]: 1160 mL/min/kg | Cmax [6, 10]: 1050 nM | MRT [6, 10]: 4.26 h | Tmax [6, 10]: 1.5 h
Structure (SMILES): O=C1OCCCc2c(Cl)cc3[nH]ncc3c2-c2ncc3c(nc(OC[C@@]45CCCN4C[C@H](F)C5)nc3c2F)N2CCOC[C@H](C2)O1 [Form 1E]
emesis ([6]; dogs, prior studies, 50 mg/kg and a high fat diet): suffered from emesis

hygroscopicity by DVS isotherm [1]: hygroscopic | moisture uptake (DVS) ([2]; at 95% relative humidity): 5.4 wt. %
Structure (SMILES): O=C1OCCCc2c(Cl)cc3[nH]ncc3c2-c2ncc3c(nc(OC[C@@]45CCCN4C[C@H](F)C5)nc3c2F)N2CCOC[C@H](C2)O1 [Form 1A]
